Laboratory results from the NIST ThermoML archive (doi:10.1016/j.jct.2008.03.015).
Numbers after ± are expanded uncertainties.

Conditions: Crystal 1

Row | SMILES | Normal melting temperature [°C]
1 | CCCCCCCCCCCCCCCCO [1-hexadecanol] | 49.76 ± 0.62
2 | CCCCCCCCCCCCCCCCCCO [1-octadecanol] | 58.38 ± 0.62
3 | CCCCCCCCCCCCO [dodecan-1-ol] | 24.07 ± 0.62
